Measured values: US20140243194A1, “Fungicidal substituted 1--1H-[1,2,4]triazole compounds” (BASF SE, priority 2011, published 2014)

Tests used:
Puccinia recondita = assay: Preventative control of brown rust on wheat caused by Puccinia recondita (Puccrt P7); assay type: in vivo; details: 250 ppm spray; wheat inoculated seven days later; untreated plants 90% infected
Description: The spray solutions were prepared in several steps: The stock solution were prepared: a mixture of acetone and/or dimethylsulfoxide and the wetting agent/emulsifier Wettol, which is based on ethoxylated alkylphenoles, in a relation (volume) solvent-emulsifier of 99 to 1 was added to 25 mg of the compound to give a total of 5 ml. Water was then added to total volume of 100 ml. This stock solution was diluted with the described solvent-emulsifier-water mixture to the given concentration. G3. Preventative Control of Brown Rust on Wheat Caused by Puccinia recondita (Puccrt P7) The first two developed leaves of pot-grown wheat seedling were sprayed to run-off with an aqueous suspension, containing the concentration of active ingredient or their mixture as described below. Seven days later the plants were inoculated with spores of Puccinia recondita. To ensure the success the artificial inoculation, the plants were transferred to a humid chamber without light and a relative humidity of 95 to 99% and 20 to 24° C. for 24 h. Then the trial plants were cultivated for 6 days in a greenhouse chamber at 20-24° C. and a relative humidity between 65 and 70%. The extent of fungal attack on the leaves was visually assessed as % diseased leaf area.

Botrytis cinerea [1] = assay: Preventative fungicidal control of Botrytis cinerea on leaves of green pepper (Botrci P1); assay type: in vivo; details: 150 ppm spray; green pepper inoculated next day; % diseased leaf area after 5 days; untreated control 100
Description: The spray solutions were prepared in several steps: The stock solution were prepared: a mixture of acetone and/or dimethylsulfoxide and the wetting agent/emulsifier Wettol, which is based on ethoxylated alkylphenoles, in a relation (volume) solvent-emulsifier of 99 to 1 was added to 25 mg of the compound to give a total of 5 ml. Water was then added to total volume of 100 ml. This stock solution was diluted with the described solvent-emulsifier-water mixture to the given concentration. G1 Preventative Fungicidal Control of Botrytis cinerea on Leaves of Green Pepper (Botrci P1) Young seedlings of green pepper were grown in pots to the 4 to 5 leaf stage. These plants were sprayed to run-off with an aqueous suspension, containing the concentration of active ingredient or their mixture mentioned in the table below. The next day the plants were inoculated with a aqueous biomalt solution containig the spore suspension of Botrytis cinerea. Then the plants were immediately transferred to a humid chamber. After 5 days at 22 to 24° C. and a relative humidity close to 100% the extent of fungal attack on the leaves was visually assessed as % diseased leaf area.

Septoria tritici [2] = assay: Preventative control of leaf blotch on wheat caused by Septoria tritici (Septtr P7); assay type: in vivo; details: 16 ppm spray, wheat inoculated seven days later
Description: The spray solutions were prepared in several steps: The stock solution were prepared: a mixture of acetone and/or dimethylsulfoxide and the wetting agent/emulsifier Wettol, which is based on ethoxylated alkylphenoles, in a relation (volume) solvent-emulsifier of 99 to 1 was added to 25 mg of the compound to give a total of 5 ml. Water was then added to total volume of 100 ml. This stock solution was diluted with the described solvent-emulsifier-water mixture to the given concentration. G2. Preventative Control of Leaf Blotch on Wheat Caused by Septoria tritici (Septtr P7) Leaves of pot-grown wheat seedling were sprayed to run-off with an aqueous suspension of the active compound or their mixture, prepared as described. The plants were allowed to air-dry. Seven days later the plants were inoculated with an aqueous spore suspension of Septoria tritici. Then the trial plants were immediately transferred to a humid chamber at 18-22° C. and a relative humidity close to 100%. After 4 days the plants were transferred to a chamber with 18-22° C. and a relative humidity close to 70%. After 4 weeks the extent of fungal attack on the leaves was visually assessed as % diseased leaf area. […]

Septoria tritici [3] = assay: Curative control of leaf blotch on wheat caused by Septoria tritici (Septtr K7); assay type: in vivo; details: 250 ppm spray seven days after inoculation (curative), untreated control 90
Description: The spray solutions were prepared in several steps: The stock solution were prepared: a mixture of acetone and/or dimethylsulfoxide and the wetting agent/emulsifier Wettol, which is based on ethoxylated alkylphenoles, in a relation (volume) solvent-emulsifier of 99 to 1 was added to 25 mg of the compound to give a total of 5 ml. Water was then added to total volume of 100 ml. This stock solution was diluted with the described solvent-emulsifier-water mixture to the given concentration. G2 Curative Control of Leaf Blotch on Wheat Caused by Septoria tritici (Septtr K7) Leaves of pot-grown wheat seedling were inoculated with an aqueous spore suspension of Septoria tritici. Then the trial plants were immediately transferred to a humid chamber at 18-22° C. and a relative humidity close to 100%. After 4 days the plants were transferred to a chamber with 18-22° C. and a relative humidity close to 70%. Seven days after inoculation the plants were sprayed to run-off with an aqueous suspension of the active compound or their mixture, prepared as described. Then the plants were transferred back to the chamber with 18-22° C. and a relative humidity close to 70%. After 4 weeks the extent of fungal attack on the leaves was visually assessed as % diseased leaf area.

Phakopsora pachyrhizi = assay: Protective control of soy bean rust on soy beans caused by Phakopsora pachyrhizi (Phakpa P2); assay type: in vivo; details: 250 ppm spray; soy bean inoculated 2 days later; untreated control 90
Description: The spray solutions were prepared in several steps:
The stock solution were prepared: a mixture of acetone and/or dimethylsulfoxide and the wetting agent/emulsifier Wettol, which is based on ethoxylated alkylphenoles, in a relation (volume) solvent-emulsifier of 99 to 1 was added to 25 mg of the compound to give a total of 5 ml. Water was then added to total volume of 100 ml. This stock solution was diluted with the described solvent-emulsifier-water mixture to the given concentration.
G3 Protective Control of Soy Bean Rust on Soy Beans Caused by Phakopsora pachyrhizi (Phakpa P2)
Leaves of pot-grown soy bean seedlings were sprayed to run-off with an aqueous suspension, containing the concentration of active ingredient or their mixture as described below. The plants were allowed to air-dry. The trial plants were cultivated for 2 days in a greenhouse chamber at 23-27° C. and a relative humidity between 60 and 80%. Then the plants were inoculated with spores of Phakopsora pachyrhizi. To ensure the success the artificial inoculation, the plants were transferred to a humid chamber with a relative humidity of about 95% and 20 to 24° C. for 24 h. The trial plants were cultivated for fourteen days in a greenhouse chamber at 23-27° C. and a relative humidity between 60 and 80%. The extent of fungal attack on the leaves was visually assessed as % diseased leaf area.

Botrytis cinerea [4] = assay: Long lasting control of Botrytis cinerea on leaves of green pepper (Botrci P7); assay type: in vivo; details: 63 ppm spray; green pepper inoculated 7 days later; untreated control 100
Description: The spray solutions were prepared in several steps: The stock solution were prepared: a mixture of acetone and/or dimethylsulfoxide and the wetting agent/emulsifier Wettol, which is based on ethoxylated alkylphenoles, in a relation (volume) solvent-emulsifier of 99 to 1 was added to 25 mg of the compound to give a total of 5 ml. Water was then added to total volume of 100 ml. This stock solution was diluted with the described solvent-emulsifier-water mixture to the given concentration. G4 Long Lasting Control of Botrytis cinerea on Leaves of Green Pepper (Botrci P7) Young seedlings of green pepper were grown in pots to the 4 to 5 leaf stage. These plants were sprayed to run-off with an aqueous suspension, containing the concentration of active ingredient or their mixture mentioned in the table below. The plants were then cultivated in the greenhouse for 7 days and then inoculated with a aqueous biomalt solution containig the spore suspension of Botrytis cinerea. Then the plants were immediately transferred to a humid chamber. After 5 days at 22 to 24° C. and a relative humidity close to 100% the extent of fungal attack on the leaves was visually assessed as % diseased leaf area.

Alternaria solani = assay: Microtest: activity against early blight caused by Alternaria solani (Alteso); assay type: cell-based; details: micro titer plate, 405 nm, 7 days after inoculation, relative growth vs compound-free control (100%)
Description: Microtest The active compounds were formulated separately as a stock solution having a concentration of 10000 ppm in dimethyl sulfoxide. M1: Activity Against Early Blight Caused by Alternaria solani (Alteso) The stock solutions were mixed according to the ratio, pipetted onto a micro titer plate (MTP) and diluted with water to the stated concentrations. A spore suspension of Alternaria solani in an aqueous biomalt or yeast-bactopeptone-glycerine solution was then added. The plates were placed in a water vapor-saturated chamber at a temperature of 17° C. Using an absorption photometer, the MTPs were measured at 405 nm 7 days after the inoculation. The measured parameters were compared to the growth of the active compound-free control variant (100%) and the fungus-free and active compound-free blank value to determine the relative growth in % of the pathogens in the respective active compounds.

| SMILES | infection (% diseased leaf area) Puccrt P7 (Puccinia recondita) | Disease (%) at 150 ppm Botrci P1 (Botrytis cinerea [1]) | Disease (%) at 16 ppm Septtr P7 (Septoria tritici [2]; % diseased leaf area after 4 weeks, untreated control 90) | Disease (%) at 16 ppm Septtr P7 (Septoria tritici [2]; section C table) | Disease (%) at 250 ppm Septtr K7 (Septoria tritici [3]) | Disease (%) at 250 ppm Phakpa P2 (Phakopsora pachyrhizi) | Disease (%) at 63 ppm Botrci p7 (Botrytis cinerea [4]) | Growth (%) at 0.008 ppm Alteso (Alternaria solani) |
| --- | --- | --- | --- | --- | --- | --- | --- | --- |
| C#CCOC(Cn1cncn1)(c1ccc(Oc2ccc(Cl)cc2)cc1Cl)C(C)C (centres unmarked) [I-4, 1-[2-[2-chloro-4-(4-chlorophenoxy)phenyl]-3-methyl-2-prop-2-ynoxy-butyl]-1,2,4-triazole] | 0% |  |  |  |  |  |  |  |
| C#CCOC(Cn1cncn1)c1ccc(Oc2ccc(Cl)cc2)cc1Cl (centres unmarked) [DE 3801223 table 1, compound 30] |  | 60% | 60% | 60% | 40% | 70% | 80% | 48% |
